# Laboratory results taken from patent US7323447B2, “Hepatitis C virus inhibitors” (Bristol-Myers Squibb Company, priority 2005, dated 2008).
# Like-named read-outs stand apart in the source and are kept apart here.
# Columns and labels:
# [1] = tested on: HCV replicon in HUH-7 cells; assay: HCV replicon FRET assay; assay type: cell-based, Hepatitis C virus (strain 1b); conditions: Table 1
# Text: An HCV replicon whole cell system was established as described by Lohmann V, Korner F, Koch J, Herian U, Theilmann L, Bartenschlager R., Science 285(5424): 110-3 (1999). This system enabled us to evaluate the effects of our HCV Protease compounds on HCV RNA replication. Briefly, using the HCV strain 1b sequence described in the Lohmann paper (Assession number: AJ238799), an HCV cDNA was synthesized by Operon Technologies, Inc. (Alameda, Calif.), and the full-length replicon was then assembled in plasmid pGem9zf(+) (Promega, Madison, Wis.) using standard molecular biology techniques. The replicon consists of (i) the HCV 5′ UTR fused to the first 12 amino acids of the capsid protein, (ii) the neomycin phosphotransferase gene (neo), (iii) the IRES from encephalomyocarditis virus (EMCV), and (iv) HCV NS3 to NS5B genes and the HCV 3′ UTR. Plasmid DNAs were linearized with ScaI and RNA transcripts were synthesized in vitro using the T7 MegaScript transcription kit (Ambion, Austin, Tex.) according to manufacturer's directions. In vitro transcripts of the cDNA were transfected into the human hepatoma cell line, HUH-7. […] Resulting cell lines were characterized for positive and negative strand RNA production and protein production over time.
# The HCV replicon FRET assay was developed to monitor the inhibitory effects of compounds described in the disclosure on HCV viral replication. HUH-7 cells, constitutively expressing the HCV replicon, were grown in Dulbecco's Modified Eagle Media (DMEM) (Gibco-BRL) containing 10% Fetal calf serum (FCS) (Sigma) and 1 mg/ml G418 (Gibco-BRL). Cells were seeded the night before (1.5×10^4 cells/well) in 96-well tissue-culture sterile plates. Compound and no compound controls were prepared in DMEM containing 4% FCS, 1:100 Penicillin/Streptomysin (Gibco-BRL), 1:100 L-glutamine and 5% DMSO in the dilution plate (0.5% DMSO final concentration in the assay). Compound/DMSO mixes were added to the cells and incubated for 4 days at 37° C. After 4 days, cells were first assessed for cytotoxicity using alamar Blue (Trek Diagnotstic Systems) for a CC50 reading. The toxicity of compound (CC50) was determined by adding 1/10th volume of alamarBlue to the media incubating the cells. After 4 h, the fluorescence signal from each well was read, with an excitation wavelength at 530 nm and an emission wavelength of 580 nm, using the Cytofluor Series 4000 (Perspective Biosystems). Plates were then rinsed thoroughly with Phosphate-Buffered Saline (PBS) (3 times 150 μl). The cells were lysed with 25 μl of a lysis assay reagent containing an HCV protease substrate (5× cell Luciferase cell culture lysis reagent (Promega #E153A) diluted to 1× with distilled water, NaCl added to 150 mM final, the FRET peptide substrate (as described for the enzyme assay above) diluted to 10 μM final from a 2 mM stock in 100% DMSO. The plate was then placed into the Cytofluor 4000 instrument which had been set to 340 nm excitation/490 nm emissions, automatic mode for 21 cycles and the plate read in a kinetic mode. EC50 determinations were carried out as described for the IC50 determinations.
# [2] = molecular target: T1, HCV NS3/4A protease complex (BMS strain) (UniProt P27958); assay: FRET peptide assay to monitor HCV NS3/4A proteolytic activity, BMS strain; assay type: biochemical, Hepatitis C virus (genotype 1a); conditions: read-out: IC50 Range; HCV NS3/4A enzyme assay; Table 1
# T1 construct: other: HCV NS3/4A enzyme assay; said of H77 and J4L6S; fused on or other part: Three-lysine solubilising tail at the NS4A C-terminus and a His tag from pET21b (Ni-NTA purification), for the H77 and J4L6S constructs
# T1 sequence (P27958 1027-1657, one chain of several): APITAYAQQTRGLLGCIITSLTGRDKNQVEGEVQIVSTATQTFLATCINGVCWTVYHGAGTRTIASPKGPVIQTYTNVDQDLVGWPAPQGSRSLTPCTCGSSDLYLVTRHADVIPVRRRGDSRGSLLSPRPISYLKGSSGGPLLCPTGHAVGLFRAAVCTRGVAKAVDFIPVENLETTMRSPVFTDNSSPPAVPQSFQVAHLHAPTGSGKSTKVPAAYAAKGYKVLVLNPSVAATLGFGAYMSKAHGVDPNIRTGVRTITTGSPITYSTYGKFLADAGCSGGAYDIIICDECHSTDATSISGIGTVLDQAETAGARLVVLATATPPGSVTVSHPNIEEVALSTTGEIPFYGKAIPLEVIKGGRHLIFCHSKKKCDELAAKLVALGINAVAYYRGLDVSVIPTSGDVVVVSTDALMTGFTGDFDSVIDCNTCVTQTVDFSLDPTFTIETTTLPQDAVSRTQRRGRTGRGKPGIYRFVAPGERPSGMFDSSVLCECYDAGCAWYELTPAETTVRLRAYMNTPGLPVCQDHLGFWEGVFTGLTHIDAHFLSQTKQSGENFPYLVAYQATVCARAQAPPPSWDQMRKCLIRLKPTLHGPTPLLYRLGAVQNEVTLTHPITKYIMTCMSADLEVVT
# Text: HCV NS3 protease complexes, derived from the BMS strain, H77 strain or J4L6S strain, were generated, as described below. These purified recombinant proteins were generated for use in a homogeneous assay (see below) to provide an indication of how effective compounds of the present disclosure would be in inhibiting HCV NS3 proteolytic activity.
# Serum from an HCV-infected patient was obtained from Dr. T. Wright, San Francisco Hospital. An engineered full-length cDNA (compliment deoxyribonucleic acid) template of the HCV genome (BMS strain) was constructed from DNA fragments obtained by reverse transcription-PCR (RT-PCR) of serum RNA (ribonucleic acid) and using primers selected on the basis of homology between other genotype 1a strains. From the determination of the entire genome sequence, a genotype 1a was assigned to the HCV isolate according to the classification of Simmonds et al. (See P Simmonds, K A Rose, S Graham, S W Chan, F McOmish, B C Dow, E A Follett, P L Yap and […] Marsden, J. Clin. Microbiol., 31(6), 1493-1503 (1993)). […] The infectious clones, H77 (1a genotype) and J4L6S (1b genotype) were obtained from R. Purcell (NIH) and the sequences are published in Genbank (AAB67036, see Yanagi, M., Purcell, R. H., Emerson, S. U. and Bukh, J. Proc. Natl. Acad. Sci. U.S.A. 94(16), 8738-8743 (1997); AF054247, see Yanagi, M., St Claire, M., Shapiro, M., Emerson, S. U., Purcell, R. H. and Bukh, J, Virology 244 (1), 161-172. (1998)).
# NS3/4A protease complex-containing fractions were pooled and loaded on a desalting column Superdex-S200 pre-equilibrated with buffer D (25 mM HEPES, pH 7.5, 20% glycerol, 300 mM NaCl, 0.2% Triton X-100, 10 mM βME). Sample was loaded at a flow rate of 1 mL/min. NS3/4A protease complex-containing fractions were pooled and concentrated to approximately 0.5 mg/ml. The purity of the NS3/4A protease complexes, derived from the BMS, H77 and J4L6S strains, were judged to be greater than 90% by SDS-PAGE and mass spectrometry analyses. The enzyme was stored at −80° C., thawed on ice and diluted prior to use in assay buffer.
# The purpose of this in vitro assay was to measure the inhibition of HCV NS3 protease complexes, derived from the BMS strain, H77 strain or J4L6S strain, as described above, by compounds of the present disclosure. This assay provides an indication of how effective compounds of the present disclosure would be in inhibiting HCV NS3 proteolytic activity.
# In order to monitor HCV NS3/4A protease activity, an NS3/4A peptide substrate was used. The substrate was RET S1 (Resonance Energy Transfer Depsipeptide Substrate; AnaSpec, Inc. cat # 22991) (FRET peptide), described by Taliani et al. in Anal. Biochem. 240(2):60-67 (1996). The sequence of this peptide is loosely based on the NS4A/NS4B natural cleavage site for the HCV NS3 protease except there is an ester linkage rather than an amide bond at the cleavage site. The peptide also contains a fluorescence donor, EDANS, near one end of the peptide and an acceptor, DABCYL, near the other end. The fluorescence of the peptide is quenched by […] resonance energy transfer (RET) between the donor and the acceptor, but as the NS3 protease cleaves the peptide the products are released from RET quenching and the fluorescence of the donor becomes apparent.
# The peptide substrate was incubated with one of the three recombinant NS3/4A protease complexes, in the absence or presence of a compound of the present disclosure. The inhibitory effects of a compound were determined by monitoring the formation of fluorescent reaction product in real time using a Cytofluor Series 4000.
# Assay buffer: 50 mM HEPES, pH 7.5; 0.15 M NaCl; 0.1% Triton; 15% Glycerol; 10 mM βME. Substrate: 2 μM final concentration (from a 2 mM stock solution in DMSO stored at −20° C.). HCV NS3/4A protease type 1a (1b), 2-3 nM final concentration (from a 5 μM stock solution in 25 mM HEPES, pH 7.5, 20% glycerol, 300 mM NaCl, 0.2% Triton-X100, 10 mM βME). […]
# [3] = Hepatitis C virus, Huh-7, read-out: EC50 Range, HCV replicon cell assay
# [4] = read-out: EC50 Range, HCV replicon cell assay
SMILES,"EC50 [1, 3]",IC50 [2],"EC50 [1, 4]"
"C=C[C@@H]1C[C@]1(NC(=O)[C@@H]1C[C@@H](Oc2cc(-c3ccccc3)nc3cc(OC)ccc23)CN1C(=O)[C@@H](O)C(C)C)C(=O)NS(=O)(=O)C1CC1 (stereo in doubt) [Example 4,Compound 5]",0.5 to 5 µM,< 0.1 µM,
C=C[C@@H]1C[C@]1(NC(=O)[C@@H]1C[C@@H](Oc2nccc3cc(OC)ccc23)CN1C(=O)[C@@H](O)C(C)C)C(=O)NS(=O)(=O)C1CC1 (stereo in doubt) [Example 52Compound 52],,0.1 to 1 µM,> 5 µM
C=C[C@@H]1C[C@]1(NC(=O)[C@@H]1C[C@@H](Oc2nccc3cc(OC)ccc23)CN1C(=O)[C@@H](OC(=O)NC1CCCC1)C(C)C)C(=O)NS(=O)(=O)C1CC1 (stereo in doubt) [Example 53Compound 53],,> 1 µM,> 5 µM
"C=C[C@@H]1C[C@]1(NC(=O)[C@@H]1C[C@@H](Oc2cc(-c3ccccc3)nc3cc(OC)ccc23)CN1C(=O)[C@@H](O)c1ccccc1)C(=O)NS(=O)(=O)C1CC1 [Example 4,Compound 1]",> 5 µM,0.1 to 1 µM,
"C=C[C@@H]1C[C@]1(NC(=O)[C@@H]1C[C@@H](Oc2cc(-c3ccccc3)nc3cc(OC)ccc23)CN1C(=O)C(O)CC(C)C)C(=O)NS(=O)(=O)C1CC1 (some centres unmarked) [Example 4,Compound 2]",0.5 to 5 µM,0.1 to 1 µM,
"C=C[C@@H]1C[C@]1(NC(=O)[C@@H]1C[C@@H](Oc2cc(-c3ccccc3)nc3cc(OC)ccc23)CN1C(=O)[C@@H](O)Cc1c[nH]cn1)C(=O)NS(=O)(=O)C1CC1 [Example 4,Compound 3]",> 5 µM,0.1 to 1 µM,
"C=C[C@@H]1C[C@]1(NC(=O)[C@@H]1C[C@@H](Oc2cc(-c3ccccc3)nc3cc(OC)ccc23)CN1C(=O)[C@@H](O)C1CCCCC1)C(=O)NS(=O)(=O)C1CC1 [Example 4,Compound 4]",0.5 to 5 µM,< 0.1 µM,
"C=C[C@@H]1C[C@]1(NC(=O)[C@@H]1C[C@@H](Oc2cc(-c3ccccc3)nc3cc(OC)ccc23)CN1C(=O)[C@@H](O)CC(C)C)C(=O)NS(=O)(=O)C1CC1 [Example 4,Compound 6]",0.5 to 5 µM,< 0.1 µM,
"C=C[C@@H]1C[C@]1(NC(=O)C1CC(Oc2cc(-c3ccccc3)nc3cc(OC)ccc23)CN1C(=O)[C@@H](O)C(C)(C)C)C(=O)NS(=O)(=O)C1CC1 (some centres unmarked) [Example 4,Compound 8]",0.5 to 5 µM,< 0.1 µM,
"C=C[C@@H]1C[C@]1(NC(=O)[C@@H]1C[C@@H](Oc2cc(-c3ccccc3)nc3cc(OC)ccc23)CN1C(=O)[C@@H](OC(=O)NC(C)(C)C)C(C)(C)C)C(=O)NS(=O)(=O)C1CC1 [Example 5,Compound 1]",< 0.5 µM,< 0.1 µM,
"C=C[C@@H]1C[C@]1(NC(=O)[C@@H]1C[C@@H](Oc2cc(-c3ccccc3)nc3cc(OC)ccc23)CN1C(=O)[C@@H](OC(=O)NC(C)C)C(C)(C)C)C(=O)NS(=O)(=O)C1CC1 [Example 5,Compound 2]",< 0.5 µM,< 0.1 µM,
"C=C[C@@H]1C[C@]1(NC(=O)[C@@H]1C[C@@H](Oc2cc(-c3ccccc3)nc3cc(OC)ccc23)CN1C(=O)[C@@H](OC(=O)NC1CCCC1)C(C)(C)C)C(=O)NS(=O)(=O)C1CC1 [Example 5,Compound 3]",< 0.5 µM,< 0.1 µM,
"C=C[C@@H]1C[C@]1(NC(=O)[C@@H]1C[C@@H](Oc2cc(-c3ccccc3)nc3cc(OC)ccc23)CN1C(=O)[C@@H](OC(=O)Nc1ccccc1)C(C)(C)C)C(=O)NS(=O)(=O)C1CC1 [Example 5,Compound 4]",< 0.5 µM,< 0.1 µM,
"C=C[C@@H]1C[C@]1(NC(=O)[C@@H]1C[C@@H](Oc2cc(-c3ccccc3)nc3cc(OC)ccc23)CN1C(=O)[C@@H](OC(=O)Nc1ccc(OC)cc1)C(C)(C)C)C(=O)NS(=O)(=O)C1CC1 [Example 5,Compound 5]",0.5 to 5 µM,0.1 to 1 µM,
"C=C[C@@H]1C[C@]1(NC(=O)[C@@H]1C[C@@H](Oc2cc(-c3ccccc3)nc3cc(OC)ccc23)CN1C(=O)[C@@H](OC(=O)Nc1ccc(OC)cc1C)C(C)(C)C)C(=O)NS(=O)(=O)C1CC1 [Example 5,Compound 6]",0.5 to 5 µM,0.1 to 1 µM,
C=C[C@@H]1C[C@]1(NC(=O)[C@@H]1C[C@@H](Oc2cc(-c3ccccc3)nc3cc(OC)ccc23)CN1C(=O)C1CC1)C(=O)NS(=O)(=O)C1CC1 [Example 19],,0.1 to 1 µM,
C=CCCCCCC(O)C(=O)N1C[C@H](Oc2nc(-c3ccccc3)cc3cc(OC)ccc23)CC1C(=O)N[C@]1(C(=O)NS(=O)(=O)C2CC2)CC1C=C (some centres unmarked) [Example 21],,0.1 to 1 µM,
